Legend:
[1] = Partition of peptide into lipid bilayer vesicles (fluorescence titration); format: physicochemical
From the text: Vesicles of zwiterionic lipid, POPC ([…]), and POPC with negative lipid, POPG in different proportions: 80:20 ▪, 50:50 and 30:70 ? until 100% POPG ( ? ). The unit of 1/1 w on the y axis is the ratio between fluorescence intensities.
Vesicles of zwiterionic lipid, POPC, and POPC with negative lipid, POPG, in the proportion 50 POPC: 50 POPG.
As can be observed, the fluorescence intensity of the phenolic moiety increases due to the insertion in the apolar environment created by the lipids. Negative lipids (other symbols) inhibit the interaction due to charge repulsion. […] KTP-NH2 is therefore suitable for i.v. or i.p. administration. KTP-NH2 diffuses through the blood stream, reaches the BBB, and translocates.
In order to confirm that these plasma-stable KTP-NH2 derivatives maintained their lipophilicity, their potential interaction with human cell membranes was assessed. Again, we performed biophysical studies using fluorescent methodologies (Santos N. C., Prieto M. and Castanho M. A. 2003. Quantifying molecular partition into model systems of biomembranes: an emphasis on optical spectroscopic methods. Biochim Biophys Acta 1612: 123-135.).

[2] = tested on: rats (Wister, male); assay: In vivo toxicology: antioxidant capacity in blood samples; parameters: species or system rat; conditions: i.p. once a day 3.23 mg-100 g body mass, seven days
Procedure: The toxicological studies were carried out with rats (Wister, male) injected i.p. once a day with 3.23 mg-100 g body mass during seven days.
Metabolization of KTP-NH2 in the organism might lead to an increase in its metabolite products and to the subsequent production of reactive oxygen species (ROS). As increased ROS levels are potentially harmful.
KTP-NH2 potential to induce changes in antioxidant capacities in the plasma of animals was explored. Total antioxidant capacity of lipid-soluble (ACL) and water-soluble (ACW) constituents were determined.

[3] = tested on: rats (Wister, male); assay: Tail-flick test; format: in vivo, rat
Procedure: Kyotorphin is an endogenous analgesic agent in the brain. However, Kyotorphin can not be used as an analgesic due to its inability to cross the blood-brain-barrier. […] In addition, KTP-NH2 efficacy after oral administration was also observed.
In vivo behavioural anti-nociception tests were carried out in rats (Wister, male). Unless otherwise stated, compounds were administered by intra-peritoneal (i.p.) injection. For most assays, the Tail Flick and the Hot Plate tests were used.
The tail-flick test (D'Amour F. E., Smith D. L. 1941. A method for determining the loss of pain sensation. J Pharmacol Exp Ther 1941; 72:74-79) is a standard investigative tool for pain and analgesia assessment in rodents. It is based on a spinal reflex response of the tail to radiant heat. Pain sensitivity in rats was measured as they responded to the application of radiant heat to a small area of their tails. […]
A KTP derivative was used for comparative purposes, as control. Both drugs were injected i.p. and p.o. and rats were analysed for the Hot Plate and Tail Flick tests.
Additionaly, the central action of KTP-NH2 was confirmed by experiments of naloxone-reversible analgesia. […] In order to corroborate the evidence that KTP-NH2 was exerting its analgesic effect via a central action, we analyzed the antinociceptive effect of KTP-NH2 after pretreatment with naloxone.

N=C(N)NCCCC(NC(=O)C(N)Cc1ccc(O)cc1)C(N)=O [KTP-NH2, L-Tyr-L-Arg-NH2]
partition coefficient for POPC, compared with KTP-OH ([1]; POPC membranes, KTP-OH value from Lopes et al 2006): significantly superior to the one of KTP-OH | local concentration in the model membrane of mammals versus surrounding bulk aqueous phase ([1]; POPC vesicles, numerical treatment of fluorescence titration data): approx. 2,500 fold | basal antioxidant capacity in plasma (water-soluble ACW and lipid-soluble ACL constituents) [2]: does not induce significant modifications | effect of naloxone pretreatment on analgesia ([3]; naloxone 10 min before KTP-NH2, KTP-NH2 3 mg/100 g, naloxone 0.5 mg/100 g, tail-flick): completely antagonized the analgesia | anti-nociceptive response, time to remove tail after stimulus (Tail Flick) ([3]; rats, i.p. and p.o. administration): clear anti-nociceptive response

From patent publication US20110294741A1, “USE OF COMPOUNDS IN THE TREATMENT OF TAU-INDUCED CYTOTOXICITIES” (Bioalvo-Servicos, Investigacao e Desenvolvimento em …, priority 2008, published 2011)
